{"source": "patent US20250000096A1", "about": "“ANTIMICROBIAL COMPOSITION WITH A LOW ODOR” (EVONIK CORPORATION, priority 2021, published 2025)", "origin": "cited, not measured here", "conditions": "background statement"}
{"compound": "CC(=O)O", "note": "[acetic acid]", "values": [{"measurement": "limit for olfactory detection", "value": 0.15, "unit": "ppm"}]}
